Patent US20240090503A1, “FUNGICIDAL OXADIAZOLES AND THEIR MIXTURES” (FMC CORPORATION, priority 2020, published 2024)
Where two headings read alike, the source gives them in different places.

Columns and labels:
[1] = test system: Phakopsora pachyrhizi (the causal agent of Asian soybean rust); assay: Test A: preventive spray on soybean seedlings, Asian soybean rust, visual disease rating; assay type: in vivo; details: for pest or weed control at 10 µg/mL: read-out: Test A disease control rating
From the text: (§1) General protocol for preparing test suspensions for Tests A-D: the test compounds were first dissolved in acetone in an amount equal to 3% of the final volume and then suspended at the desired concentration (in ppm) in acetone and purified water (50/50 mix by volume) containing 250 ppm of the surfactant PEG400 (polyhydric alcohol esters). The resulting test suspensions were then used in Tests A-D.
(§2) The test suspension was sprayed to the point of run-off on soybean seedlings. The following day the seedlings were inoculated with a spore suspension of Phakopsora pachyrhizi (the causal agent of Asian soybean rust) and incubated in a saturated atmosphere at 22° C. for 24 h and then moved to a growth chamber at 22° C. for 8 days, after which time visual disease ratings were made.
(§3) The test results for Tests A-C presented in Table A below for compounds of Formula 1 illustrate the fungicidal activity of component (a) contributing to the plant disease control utility of compositions comprising component (a) in combination with component (b) according to the present invention. In the Table, a rating of 100 indicates 100% disease control and a rating of 0 indicates no disease control (relative to the controls). A dash (-) indicates the compound was not tested. The test suspensions were sprayed at the concentration listed in the column “Rate in ppm”, unless otherwise indicated. An asterisk “*” next to the rating indicates a 250 ppm test suspension was used, a double asterisk “**” next to the rating indicates a 100 ppm test suspension was used, and a triple asterisk “***” next to the rating indicates a 50 ppm test suspension was used.

[2] = test system: Puccinia recondita f. sp. tritici (the causal agent of wheat leaf rust); assay: Test C: preventive spray on wheat seedlings, wheat leaf rust, visual disease rating; assay type: in vivo; details: for pest or weed control at 10 µg/mL: read-out: Test C disease control rating
From the text: as §1
as §2, with “on wheat” for “on soybean”, “of Puccinia recondita f. sp. tritici;” for “of Phakopsora pachyrhizi”, “of wheat leaf” for “of Asian soybean”, “at 20°” for “at 22°”, “24 h,” for “24 h”, “for 6” for “for 8”
as §3

[3] = Phakopsora pachyrhizi, 216 h, test suspension 10 ppm, soybean seedlings, 100 = 100% disease control, 0 = no control
[4] = Puccinia recondita, 168 h, test suspension 10 ppm, wheat seedlings
[5] = test suspension 10 ppm, soybean seedlings, 100 = 100% disease control, 0 = no control
[6] = test suspension 10 ppm, wheat seedlings
[7] = test suspension 50 ppm, soybean seedlings
[8] = test suspension 50 ppm, wheat seedlings

O=c1ccc(Cl)nn1Cc1ccc(-c2noc(C(F)(F)F)n2)cc1 [Compound 4, 6-chloro-2-[[4-[5-(trifluoromethyl)-1,2,4-oxadiazol-3-yl]phenyl]methyl]-3(2H)-pyridazinone]
pest or weed control at 50 µg/mL ([1]; Phakopsora pachyrhizi, 216 h, test suspension 50 ppm, soybean seedlings): 100% | pest or weed control at 50 µg/mL ([2]; Puccinia recondita, 168 h, test suspension 50 ppm, wheat seedlings): 100%

COC(=O)c1ccn(Cc2ccc(-c3noc(C(F)(F)F)n3)cc2)c(=O)c1 [Compound 24, methyl 1,2-dihydro-2-oxo-1-[[4-[5-(trifluoromethyl)-1,2,4-oxadiazol-3-yl]phenyl]methyl]-4-pyridinecarboxylate]
pest or weed control at 10 µg/mL [1, 3]: 100% | pest or weed control at 10 µg/mL [2, 4]: 95%

COC(=O)c1cccc2nn(Cc3ccc(-c4noc(C(F)(F)F)n4)cc3)cc12 [Compound 36, methyl 2-[[4-[5-(trifluoromethyl)-1,2,4-oxadiazol-3-yl]phenyl]methyl]-2H-indazole-4-carboxylate]
pest or weed control at 10 µg/mL [1, 3]: 100% | pest or weed control at 10 µg/mL [2, 4]: 100%

COC(=O)c1cccc2c1cnn2Cc1ccc(-c2noc(C(F)(F)F)n2)cc1 [Compound 49, methyl 1-[[4-[5-(trifluoromethyl)-1,2,4-oxadiazol-3-yl]phenyl]methyl]-1H-indazole-4-carboxylate]
pest or weed control at 10 µg/mL [1, 3]: 100% | pest or weed control at 10 µg/mL [2, 4]: 100%

COC(=O)C1COC(Cc2ccc(-c3noc(C(F)(F)F)n3)cc2)=N1 (stereo not drawn) [Compound 74, methyl 4,5-dihydro-2-[[4-[5-(trifluoromethyl)-1,2,4-oxadiazol-3-yl]phenyl]methyl]-4-oxazolecarboxylate]
pest or weed control at 10 µg/mL [1, 3]: 99% | pest or weed control at 10 µg/mL [2, 4]: 51%

NC(=O)C1COC(Cc2ccc(-c3noc(C(F)(F)F)n3)cc2)=N1 (stereo not drawn) [Compound 75, 4,5-dihydro-2-[[4-[5-(trifluoromethyl)-1,2,4-oxadiazol-3-yl]phenyl]methyl]-4-oxazolecarboxamide]
pest or weed control at 10 µg/mL [1, 3]: 100% | pest or weed control at 10 µg/mL [2, 4]: 68%

CCOC(=O)c1cc(C)n(Cc2ccc(-c3noc(C(F)(F)F)n3)cc2)n1 [Compound 110, ethyl 5-methyl-1-[[4-[5-(trifluoromethyl)-1,2,4-oxadiazol-3-yl]phenyl]methyl]-1H-pyrazole-3-carboxylate]
pest or weed control at 10 µg/mL [1, 3]: 100% | pest or weed control at 10 µg/mL [2, 4]: 91%

FC(F)(F)c1nc(-c2ccc(Cn3ccc4ncccc43)cc2)no1 [Compound 136, 1-[[4-[5-(trifluoromethyl)-1,2,4-oxadiazol-3-yl]phenyl]methyl]-1H-pyrrolo[3,2-b]pyridine]
pest or weed control at 10 µg/mL [1, 3]: 100% | pest or weed control at 10 µg/mL [2, 4]: 68%

FC(F)(F)c1nc(-c2ccc(Cn3ncc4cccnc43)cc2)no1 [Compound 147, 1-[[4-[5-(trifluoromethyl)-1,2,4-oxadiazol-3-yl]phenyl]methyl]-1H-pyrazolo[3,4-b]pyridine]
pest or weed control at 10 µg/mL [1, 3]: 100% | pest or weed control at 10 µg/mL [2, 4]: 100%

CN(C)C(=O)C1COC(Cc2ccc(-c3noc(C(F)(F)F)n3)cc2)=N1 (stereo not drawn) [Compound 178, 4,5-dihydro-N,N-dimethyl-2-[[4-[5-(trifluoromethyl)-1,2,4-oxadiazol-3-yl]phenyl]methyl]-4-oxazolecarboxamide]
pest or weed control at 10 µg/mL [1, 3]: 96% | pest or weed control at 10 µg/mL [2, 4]: 68%

COCCNC(=O)c1cc(C)n(Cc2ccc(-c3noc(C(F)(F)F)n3)cc2)n1 [Compound 183, N-(2-methoxyethyl)-5-methyl-1-[[4-[5-(trifluoromethyl)-1,2,4-oxadiazol-3-yl]phenyl]methyl]-1H-pyrazole-3-carboxamide]
pest or weed control at 10 µg/mL [1, 3]: 100% | pest or weed control at 10 µg/mL [2, 4]: 100%

O=C(NCCCl)c1coc(Cc2ccc(-c3noc(C(F)(F)F)n3)cc2)n1 [Compound 204, N-(2-chloroethyl)-2-[[4-[5-(trifluoromethyl)-1,2,4-oxadiazol-3-yl]phenyl]methyl]-4-oxazolecarboxamide]
pest or weed control at 10 µg/mL ([1]; Phakopsora pachyrhizi, 216 h): 100% | pest or weed control at 10 µg/mL ([2]; Puccinia recondita, 168 h): 100%

COC(=O)c1ccc2nn(Cc3ccc(-c4noc(C(F)(F)F)n4)cc3)nc2c1 [compound 23]
Test A disease control rating [1, 5]: 100% | Test C disease control rating [2, 6]: 100%

COc1cc(=O)n(Cc2ccc(-c3noc(C(F)(F)F)n3)cc2)nc1Cl [compound 27]
Test A disease control rating [1, 7]: 100% | Test C disease control rating [2, 8]: 100%

COc1cnn(Cc2ccc(-c3noc(C(F)(F)F)n3)cc2)c(=O)c1 [compound 28]
Test A disease control rating [1, 7]: 100% | Test C disease control rating [2, 8]: 100%

O=[N+]([O-])c1ccc2c(c1)c(Br)nn2Cc1ccc(-c2noc(C(F)(F)F)n2)cc1 [compound 30]
Test A disease control rating [1, 5]: 25% | Test C disease control rating [2, 6]: 0%

CSc1nn(Cc2ccc(-c3noc(C(F)(F)F)n3)cc2)nc1C [compound 31]
Test A disease control rating [1, 5]: 100% | Test C disease control rating [2, 6]: 100%

Cc1cc2c(cnn2Cc2ccc(-c3noc(C(F)(F)F)n3)cc2)cc1Br [compound 32]
Test A disease control rating [1, 5]: 96% | Test C disease control rating [2, 6]: 68%

Cc1cc2nn(Cc3ccc(-c4noc(C(F)(F)F)n4)cc3)cc2cc1Br [compound 33]
Test A disease control rating [1, 5]: 100% | Test C disease control rating [2, 6]: 68%

Cc1nn(Cc2ccc(-c3noc(C(F)(F)F)n3)cc2)c2cccc(Br)c12 [compound 34]
Test A disease control rating [1, 5]: 71% | Test C disease control rating [2, 6]: 55%

COC(=O)c1ccc2nn(Cc3ccc(-c4noc(C(F)(F)F)n4)cc3)cc2c1 [compound 35]
Test A disease control rating [1, 5]: 100% | Test C disease control rating [2, 6]: 98%

Cc1c2c(Br)cccc2nn1Cc1ccc(-c2noc(C(F)(F)F)n2)cc1 [compound 37]
Test A disease control rating [1, 5]: 99% | Test C disease control rating [2, 6]: 86%

FC(F)(F)c1nc(-c2ccc(Cn3cc4c(I)cc(Cl)cc4n3)cc2)no1 [compound 38]
Test A disease control rating [1, 5]: 78% | Test C disease control rating [2, 6]: 68%

FC(F)(F)c1nc(-c2ccc(Cn3ncc4c(I)cc(Cl)cc43)cc2)no1 [compound 39]
Test A disease control rating [1, 5]: 44% | Test C disease control rating [2, 6]: 28%

CSc1nnn(Cc2ccc(-c3noc(C(F)(F)F)n3)cc2)c1C [compound 40]
Test A disease control rating [1, 5]: 100% | Test C disease control rating [2, 6]: 92%

COC(=O)c1ccc2cnn(Cc3ccc(-c4noc(C(F)(F)F)n4)cc3)c2c1 [compound 41]
Test A disease control rating [1, 5]: 100% | Test C disease control rating [2, 6]: 98%

COC(=O)c1ccc2cn(Cc3ccc(-c4noc(C(F)(F)F)n4)cc3)nc2c1 [compound 42]
Test A disease control rating [1, 5]: 100% | Test C disease control rating [2, 6]: 92%

CON(C)C(=O)c1nn(Cc2ccc(-c3noc(C(F)(F)F)n3)cc2)c2ccccc12 [compound 43]
Test A disease control rating [1, 5]: 100% | Test C disease control rating [2, 6]: 96%

N#CCNC(=O)c1nn(Cc2ccc(-c3noc(C(F)(F)F)n3)cc2)c2ccccc12 [compound 44]
Test A disease control rating [1, 5]: 100% | Test C disease control rating [2, 6]: 95%

CNC(=O)c1nn(Cc2ccc(-c3noc(C(F)(F)F)n3)cc2)c2ccccc12 [compound 45]
Test A disease control rating [1, 5]: 100% | Test C disease control rating [2, 6]: 99%

COCCNC(=O)c1nn(Cc2ccc(-c3noc(C(F)(F)F)n3)cc2)c2ccccc12 [compound 46]
Test A disease control rating [1, 5]: 100% | Test C disease control rating [2, 6]: 100%

COC(=O)c1cccc2cnn(Cc3ccc(-c4noc(C(F)(F)F)n4)cc3)c12 [compound 47]
Test A disease control rating [1, 5]: 100% | Test C disease control rating [2, 6]: 74%

COC(=O)c1ccc2c(cnn2Cc2ccc(-c3noc(C(F)(F)F)n3)cc2)c1 [compound 48]
Test A disease control rating [1, 5]: 100% | Test C disease control rating [2, 6]: 89%
